From patent publication US11708344B2, “Flavone derivatives for the treatment and prophylaxis of hepatitis B virus disease” (Hoffmann-La Roche Inc., priority 2018, dated 2023) come the findings set out here.

This assay relates to HBsAg in HBV-infected PHH. In words: Cryopreserved primary human hepatocytes (PHH) HBV infection assay, extracellular HBsAg (CLIA). It is filed as cell-based. The following applies: Hepatitis B virus, Hepatocyte, 216 h, read-out: HBsAg IC50, Cryopreserved PHH infected with HBV, 9 days post-compound treatment, extracellular HBsAg. In a few lines:
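Cryopreserved PHH were infected with 5.8×10^6 HBV genome equivalents in medium with 4% PEG8000 and 1% DMSO. After 9 days of treatment, extracellular HBsAg was measured by CLIA, and IC50 was derived from a 4-parameter logistic fit.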

pIC50: −log10 of the molar value.

Turning to `O=c1cc(-c2ccc(Br)cc2OCCO[C@H]2C[C@@H](C(=O)O)C2)oc2c(Cl)cccc12` [Example C003-A, Cis-3-[2-[5-bromo-2-(8-chloro-4-oxo-chromen-2-yl)phenoxy]ethoxy]cyclobutanecarboxylic acid], the pIC50 is 5.06.
